Consider ten compounds from patent publication US9029544B2, “Tricyclic pyridine derivatives, medicaments containing such compounds, their use and process for their preparation” (Boehringer Ingelheim International GmbH, priority 2010, dated 2015).

The target of the assay is T1, Recombinant human CETP (Homo sapiens, UniProt P11597).
T1 construct: made in house; host or cells: CHO cells (secreted into conditioned medium)
T1 sequence (P11597 18-493): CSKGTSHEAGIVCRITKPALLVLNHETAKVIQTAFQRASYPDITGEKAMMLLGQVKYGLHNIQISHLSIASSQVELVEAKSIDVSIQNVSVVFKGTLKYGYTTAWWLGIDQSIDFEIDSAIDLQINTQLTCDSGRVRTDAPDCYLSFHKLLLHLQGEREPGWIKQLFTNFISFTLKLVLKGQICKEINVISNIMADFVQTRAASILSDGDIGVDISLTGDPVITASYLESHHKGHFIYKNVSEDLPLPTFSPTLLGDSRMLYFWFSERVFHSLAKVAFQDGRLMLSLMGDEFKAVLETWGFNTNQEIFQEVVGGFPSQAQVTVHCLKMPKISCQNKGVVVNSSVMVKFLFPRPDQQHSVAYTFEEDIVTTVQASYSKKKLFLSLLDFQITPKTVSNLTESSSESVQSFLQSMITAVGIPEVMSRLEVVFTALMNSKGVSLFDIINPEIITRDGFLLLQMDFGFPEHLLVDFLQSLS
As to the kind of experiment: CETP in vitro assay (fluorometric assay, Roar Biomedical; cholesterol ester transfer from HDL to LDL). It counts as biochemical. The note with it: recombinant human CETP from CHO cells; 3 hours at 37° C.; fluorescence 485/535 nm; compound concentrations between 1 nM and 30 μM; read-out: IC50 values for inhibition of CETP. Here is the method: CETP inhibitory activity of compounds of the present invention can be determined in a fluorometric assay purchased from Roar Biomedical, Inc. (New York, N.Y., USA). […] Recombinant human CETP was partially purified from medium conditioned by CETP expressing CHO cells. In a 384 well format 2.5 μl of compound solution in DMSO was combined with 2 μl of donor solution, 2 μl of acceptor solution and 0.8 μl of recombinant human CETP solution in a total volume of 100 μl with assay buffer and incubated for 3 hours at 37° C. The fluorescence intensity was measured at excitation wavelength of 485 nm and emission wavelength of 535 nm. IC50 values are calculated from dose effect curves from compound concentrations between 1 nM and 30 μM.

On to `Cc1nc([C@H]2OC3(CCOCC3)c3c2c(C(C)C)nc2c3[C@@H](O)CC(C)(C)C2)sc1C(C)(C)C` [1(56), (3S,9S)-3-(5-tert-butyl-4-methylthiazol-2-yl)-4-isopropyl-7,7-dimethyl-2′,3′,5′,6,6′,7,8,9-octahydro-3H-spiro[furo[3,4-c]quinoline-1,4′-pyran]-9-ol], for which the half-maximal inhibitory concentration (IC50) came to 470 nM. The figure for `CC(C)c1nc2c(c3c1[C@@H](c1ccc(S(F)(F)(F)(F)F)cc1)OC31CCCC1)[C@@H](O)CC(C)(C)C2` [1(71), (3′R,9′S)-4′-isopropyl-7′,7′-dimethyl-3′-(4-(pentafluorosulfanyl)phenyl)-6′,7′,8′,9′-tetrahydro-3′H-spiro[cyclopentane-1,1′-furo[3,4-c]quinolin]-9′-ol] is 31 nM; for `C=C(C)c1ccc([C@H]2OC3(CCCC3)c3c2c(C(C)C)nc2c3[C@@H](O)CC(C)(C)C2)cc1` [1(60), (3′R,9′S)-4′-isopropyl-7′,7′-dimethyl-3′-(4-(prop-1-en-2-yl)phenyl)-6′,7′,8′,9′-tetrahydro-3′H-spiro[cyclopentane-1,1′-furo[3,4-c]quinolin]-9′-ol] it is 44 nM. Take `O[C@H]1CC2(CCC2)Cc2nc(C3CCOCC3)c3c(c21)C1(CCOCC1)O[C@@H]3c1ccc(C(F)(F)F)cc1` [1(77), (3R,9S)-7,7-(propan-1,3-diyl)-4-(tetrahydro-2H-pyran-4-yl)-3-(4-(trifluoromethyl)phenyl)-2′,3′,5′,6,6′,7,8,9-octahydro-3H-spiro[furo[3,4-c]quinoline-1,4′-pyran]-9-ol]: the IC50 was 39 nM.

Regarding `CC(C)c1nc2c(c3c1[C@@H](c1ncc(C(F)(F)F)cc1F)OC31CCOCC1)[C@@H](O)CC(C)(C)C2` [5(2), (3S,9S)-3-(3-fluoro-5-(trifluoromethyl)pyridin-2-yl)-4-isopropyl-7,7-dimethyl-2′,3′,5′,6,6′,7,8,9-octahydro-3H-spiro[furo[3,4-c]quinoline-1,4′-pyran]-9-ol], the IC50 is 206 nM.

Turning to `CC1(C)Cc2nc(C(C)(C)C)c3c(c2[C@@H](O)C1)C1(CCOCC1)O[C@@H]3c1ccc(C(F)(F)F)cc1` [1(80), (3R,9S)-4-tert-butyl-7,7-dimethyl-3-(4-(trifluoromethyl)phenyl)-2′,3′,5′,6,6′,7,8,9-octahydro-3H-spiro[furo[3,4-c]quinoline-1,4′-pyran]-9-ol], the IC50 came out at 47 nM. In the case of `CC(C)c1nc2c(c3c1[C@@H](c1ccc(OC(C)(C)C)cc1)OC31CCOCC1)[C@@H](O)CC(C)(C)C2` [1(58), (3R,9S)-3-(4-tert-butoxyphenyl)-4-isopropyl-7,7-dimethyl-2′,3′,5′,6,6′,7,8,9-octahydro-3H-spiro[furo[3,4-c]quinoline-1,4′-pyran]-9-ol], the IC50 is 88 nM.

Consider `CC(C)Oc1ccc([C@H]2OC3(CCOCC3)c3c2c(C(C)C)nc2c3[C@@H](O)CC(C)(C)C2)cc1` [1(59), (3R,9S)-3-(4-isopropoxyphenyl)-4-isopropyl-7,7-dimethyl-2′,3′,5′,6,6′,7,8,9-octahydro-3H-spiro[furo[3,4-c]quinoline-1,4′-pyran]-9-ol], for which the IC50 amounted to 245 nM.

Regarding `CC(C)c1nc2c(c3c1[C@@H](c1ccc(C(F)(F)F)cn1)OC31CCC(F)(F)CC1)[C@@H](O)CC(C)(C)C2` (single isomer, unassigned) [7 (Diastereomer 1), (3′S,9′S)-4,4-difluoro-4′-isopropyl-7′,7′-dimethyl-3′-(5-(trifluoromethyl)pyridin-2-yl)-6′,7′,8′,9′-tetrahydro-3′H-spiro[cyclohexane-1,1′-furo[3,4-c]quinolin]-9′-ol], the half-maximal inhibitory concentration (IC50) turned out to be 193 nM. Turning to `CC(C)c1nc2c(c3c1[C@@H](c1ccc(C(F)(F)F)cn1)OC31CCOCC1)[C@@H](O)CC1(CCC1)[C@H]2O` [5(8), (3S,6R,9S)-4-isopropyl-7,7-(propan-1,3-diyl)-3-(5-(trifluoromethyl)pyridin-2-yl)-2′,3′,5′,6,6′,7,8,9-octahydro-3H-spiro[furo[3,4-c]quinoline-1,4′-pyran]-6,9-diol], the IC50 turned out to be 42 nM.
